Tests used:
HL-60(TB) = assay type: cell-based, human; conditions: Leukemia, 10 μM, 48 h
Method: The human tumor cell lines of the cancer screening panel were grown in RPMI 1640 medium containing 5% fetal bovine serum and 2 mM L-glutamine. For experimental screens, cells were inoculated into 96 well microtiter plates in 100 μL at plating densities ranging from 5,000 to 40,000 cells/well depending on the doubling time of individual cell lines. After cell inoculation, the microtiter plates were incubated at 37° C., 5% carbon dioxide, 95% air and 100% relative humidity for 24 hours prior to addition of the compounds.

UO-31 = assay: NCI DTP human tumor cell line screen (SRB); assay type: cell-based; conditions: Renal Cancer, 10 μM, 48 h
Method: (§1) Representative compounds of the invention, prepared as described in EXAMPLES 1-6, were submitted to the Developmental Therapeutics Program of the United States National Cancer Institute (NCl) to screen for anti-cancer activity. The anti-cancer activities of the six compounds were tested against approximately 60 human tumor cell lines representing leukemia, melanoma, and cancers of the lung, colon, breast, ovary, kidney, prostate, and brain. The following screening methodology was provided by the NCl. […] For experimental screens, cells were inoculated into 96 well microtiter plates in 100 μL at plating densities ranging from 5,000 to 40,000 cells/well depending on the doubling time of individual cell lines. After cell inoculation, the microtiter plates were incubated at 37° C., 5% carbon dioxide, 95% air and 100% relative humidity for 24 hours prior to addition of the compounds. After 24 hours of incubation, two plates of each cell line were fixed in situ with trichloroacetic acid (TCA) to represent a measurement of the cell population for each cell line at the time of compound addition (Tz). The compounds were solubilized in dimethyl sulfoxide at 400-fold the desired final maximum test concentration and stored frozen prior to use. At the time of drug addition, frozen aliquots of the compounds thawed and diluted with complete medium containing 50 μg/ml gentamicin. Aliquots of 100 μl of these different compound dilutions were added to the appropriate microtiter wells already containing 100 μl of medium, resulting in the required final compound concentration of 10 μM. Following compound addition, the plates were incubated for an additional 48 h at 37° C., 5% carbon dioxide, 95% air, and 100% relative humidity. For adherent cells, the assay was terminated by the addition of cold TCA. Cells were fixed in situ by the gentle addition of 50 μl of cold 50% (w/v) TCA (final concentration, 10% TCA) and incubated for 60 minutes at 4° C. The supernatant was discarded, and the plates were washed five times with tap water and air dried. Sulforhodamine B (SRB) solution (100 μl) at 0.4% (w/v) in 1% acetic acid was added to each well, and plates were incubated for 10 minutes at room temperature. After staining, unbound dye was removed by washing five times with 1% acetic acid and the plates were air dried. Bound stain was subsequently solubilized with 10 mM trizma base, and the absorbance was read on an automated plate reader at a wavelength of 515 nm. For suspension cells, the methodology was the same except that the assay was terminated by fixing settled cells at the bottom of the wells by gently adding 50 μl of 80% TCA (final concentration, 16% TCA). Using the three absorbance measurements [time zero, (Tz), control growth, (C), and test growth in the presence of compound (Ti)], the percentage growth was calculated at each of the compound concentrations levels. Percentage growth inhibition was calculated with the following algorithms: [(Ti−Tz)/(C−Tz)]×100 for concentrations for which Ti>/=Tz [(Ti−Tz)/Tz]×100 for concentrations for which Ti<Tz The results of the NCl in vitro anticancer screening with six compounds against various human tumor cell lines are presented below in Tables 2-7. […] The growth percent mean, delta, and range for each compound are given below.

LOX IMVI = assay: NCI DTP human tumor cell line screen (SRB); assay type: cell-based; conditions: Melanoma, 10 μM, 48 h
Method: as §1

SK-MEL-5 = assay: NCI DTP human tumor cell line screen (SRB); assay type: cell-based; conditions: Melanoma, 10 μM, 48 h
Method: as §1

UACC-257 = assay: NCI DTP human tumor cell line screen (SRB); assay type: cell-based; conditions: Melanoma, 10 μM, 48 h
Method: as §1

MDA-MB-231/ATCC = assay: NCI DTP human tumor cell line screen (SRB); assay type: cell-based; conditions: Breast Cancer, 10 μM, 48 h
Method: as §1

HT29 = assay: NCI DTP human tumor cell line screen (SRB); assay type: cell-based; conditions: Colon Cancer, 10 μM, 48 h
Method: as §1

MALME-3M = assay: NCI DTP human tumor cell line screen (SRB); assay type: cell-based; conditions: Melanoma, 10 μM, 48 h
Method: as §1

KM12 = assay: NCI DTP human tumor cell line screen (SRB); assay type: cell-based; conditions: Colon Cancer, 10 μM, 48 h
Method: as §1

M14 = assay: NCI DTP human tumor cell line screen (SRB); assay type: cell-based; conditions: Melanoma, 10 μM, 48 h
Method: as §1

SNB-75 = assay: NCI DTP human tumor cell line screen (SRB); assay type: cell-based; conditions: CNS Cancer, 10 μM, 48 h
Method: as §1

K-562 = assay: NCI DTP human tumor cell line screen (SRB); assay type: cell-based; conditions: Leukemia, 10 μM, 48 h
Method: as §1

OVCAR-3 = assay: NCI DTP human tumor cell line screen (SRB); assay type: cell-based; conditions: Ovarian Cancer, 10 μM, 48 h
Method: as §1

HCC-2998 = assay: NCI DTP human tumor cell line screen (SRB); assay type: cell-based; conditions: Colon Cancer, 10 μM, 48 h
Method: as §1

SF-268 = assay: NCI DTP human tumor cell line screen (SRB); assay type: cell-based; conditions: CNS Cancer, 10 μM, 48 h
Method: as §1

NCI-H322M = assay: NCI DTP human tumor cell line screen (SRB); assay type: cell-based; conditions: Non-Small Cell Lung Cancer, 10 μM, 48 h
Method: as §1

HCT-116 = assay: NCI DTP human tumor cell line screen (SRB); assay type: cell-based; conditions: Colon Cancer, 10 μM, 48 h
Method: as §1

NCI-H522 = assay: NCI DTP human tumor cell line screen (SRB); assay type: cell-based; conditions: Non-Small Cell Lung Cancer, 10 μM, 48 h
Method: as §1

OVCAR-4 = assay: NCI DTP human tumor cell line screen (SRB); assay type: cell-based; conditions: Ovarian Cancer, 10 μM, 48 h
Method: as §1

OVCAR-8 = assay: NCI DTP human tumor cell line screen (SRB); assay type: cell-based; conditions: Ovarian Cancer, 10 μM, 48 h
Method: as §1

SF-539 = assay: NCI DTP human tumor cell line screen (SRB); assay type: cell-based; conditions: CNS Cancer, 10 μM, 48 h
Method: as §1

HOP-92 = assay: NCI DTP human tumor cell line screen (SRB); assay type: cell-based; conditions: Non-Small Cell Lung Cancer, 10 μM, 48 h
Method: as §1

SK-MEL-28 = assay: NCI DTP human tumor cell line screen (SRB); assay type: cell-based; conditions: Melanoma, 10 μM, 48 h
Method: as §1

[1] = test system: approximately 60 human tumor cell lines; assay: NCI DTP human tumor cell line screen, whole panel statistics; assay type: cell-based; conditions: for inhibitory activities against cancer cells: DTP human tumor cell line screen, non-small cell lung, colon, breast, ovarian, leukemia, renal, melanoma, prostate, CNS cancer; for mean growth percent: mean over all cell lines tested; for mean growth percent / delta value (growth percent) / range (growth percent): 10 μM, 48 h; for delta value (growth percent) / range (growth percent): over all cell lines tested
Method: as §1

| Compound | Growth Percent (HL-60(TB)) [%] | Growth Percent (UO-31) [%] | Growth Percent (LOX IMVI) [%] | Growth Percent (SK-MEL-5) [%] | Growth Percent (UACC-257) [%] | Growth Percent (MDA-MB-231/ATCC) [%] | Growth Percent (HT29) [%] | Growth Percent (SNB-75) [%] | Growth Percent (K-562) [%] | Growth Percent (OVCAR-3) [%] | Growth Percent (HCC-2998) [%] | Growth Percent (SF-268) [%] | Growth Percent (HCT-116) [%] | Growth Percent (OVCAR-4) [%] | Growth Percent (OVCAR-8) [%] | Growth Percent (SF-539) [%] | Growth Percent (HOP-92) [%] | Growth Percent (SK-MEL-28) [%] | inhibitory activities against cancer cells [1] | mean growth percent [1] [%] | also measured |
| --- | --- | --- | --- | --- | --- | --- | --- | --- | --- | --- | --- | --- | --- | --- | --- | --- | --- | --- | --- | --- | --- |
| CC1CCC2C(C)C(OCc3ccc(C(=O)NN=Cc4ccccc4O)cc3)OC3OC4(C)CCC1C32OO4 (stereo not shown) [ART-Phe-Sal, N′-(2-hydroxybenzylidene)-4-(dihydroxyartemisinin-methyl)-phenyl carbohydrazide] | −54.70 | −17.67 | 1.55 | −56.71 | 22.90 | 47.38 | 22.93 | −16.75 | 8.87 | 29.79 | 37.90 | 10.84 | 13.24 | 17.87 | 24.17 | −18.69 | 56.27 | 22.75 | inhibitory activities against several types of cancer cells | 10.55 | Growth Percent (MALME-3M): 16.70%; Growth Percent (KM12): 23.72%; Growth Percent (M14): −37.45%; Growth Percent (NCI-H322M): 23.76%; Growth Percent (NCI-H522): 5.74%; delta value (growth percent) [1]: 67.26; range (growth percent) [1]: 112.98 |
| CC1CCC2C(C)C(OCc3ccc(C(=O)NN=Cc4ccccc4O)o3)OC3OC4(C)CCC1C32OO4 (stereo not shown) [ART-Furan-Sal, N′-(2-hydroxybenzylidene)-5-(dihydroxyartemisinin-methyl)-furan-2-carbohydrazide] | −43.79 | −35.28 | 0.03 | −46.62 | 9.72 | 31.58 | 22.40 | −17.31 | 8.79 | 30.23 | 5.37 | −0.43 | 13.81 | 12.86 | 17.07 | −11.48 | 37.02 | 16.46 | inhibitory activities against several types of cancer cells | 6.1 | Growth Percent (M14): −48.54%; Growth Percent (NCI-H522): −10.76%; delta value (growth percent) [1]: 54.64; range (growth percent) [1]: 89.31; mean growth percent ([1]; summary text): 6.1% |
| CC1CCC2C(C)C(OCCn3cc(C(=O)NN=Cc4ccccc4O)nn3)OC3OC4(C)CCC1C32OO4 (stereo not shown) [ART-Triazole-Sal, N′-(2-hydroxybenzylidene)-1-(dihydroxyartemisinin-ethyl)-1H-1,2,3-triazole-4-carbohydrazide] | −31.16 | −28.61 | 6.87 | 12.45 | 19.39 | 52.54 | 31.44 | −8.40 | 17.31 | 50.36 | 25.98 | 21.15 | 20.87 | 15.89 | 25.82 | 14.19 | 44.42 | 27.59 | inhibitory activities against several types of cancer cells | 22.31 | Growth Percent (MALME-3M): 42.33%; Growth Percent (KM12): 29.83%; Growth Percent (M14): 3.07%; Growth Percent (NCI-H322M): 27.06%; delta value (growth percent) [1]: 53.47; range (growth percent) [1]: 83.7; mean growth percent ([1]; summary text): 22.31% |
| Cc1ncc(CO)c(C=NNC(=O)c2ccc(COC3OC4OC5(C)CCC6C(C)CCC(C3C)C46OO5)cc2)c1O (stereo not shown) [ART-Phe-Pyridoxal, N′-(5-hydroxy-3-hydroxymethyl-2-methyl-4-pyridylidene)-4-(dihydroxyartemisinin-methyl)-phenyl carbohydrazide] | −4.98 | 4.39 | 4.22 | −43.83 | 1.40 | 29.96 | 32.72 | 42.44 | 22.86 | 19.87 | 27.38 | 1.39 | 15.30 | 21.42 | 31.40 | −20.49 | 20.97 | −7.02 | inhibitory activities against several types of cancer cells | 7.85 | Growth Percent (MALME-3M): −17.79%; Growth Percent (KM12): 17.87%; Growth Percent (NCI-H322M): 14.34%; Growth Percent (NCI-H522): 38.92%; delta value (growth percent) [1]: 51.68; range (growth percent) [1]: 88.81; mean growth percent ([1]; summary text): 7.85% |

Source: patent US7692030B2, “Conjugates of artemisinin-related endoperoxides and hydrazone derivatives for the treatment of cancer” (University of Washington, priority 2006, dated 2010)
